Tests used:
Assay type in all cases: cell-based
[1] = target: T1, P2X7ΔC receptor (Rattus norvegicus, UniProt Q64663); experiment: Whole-cell recordings in HEK293 cells transiently transfected with P2X7ΔC cDNA; conditions: 30 μM BzATP, normal solution, holding potential −70 mV, transiently transfected HEK cells, n=18
T1 construct: the resulting protein (P2X7ΔC) was P2X7 (1-418); expressed in transfected cells; host or cells: HEK293 (transient)
T1 sequence (Q64663 1-418): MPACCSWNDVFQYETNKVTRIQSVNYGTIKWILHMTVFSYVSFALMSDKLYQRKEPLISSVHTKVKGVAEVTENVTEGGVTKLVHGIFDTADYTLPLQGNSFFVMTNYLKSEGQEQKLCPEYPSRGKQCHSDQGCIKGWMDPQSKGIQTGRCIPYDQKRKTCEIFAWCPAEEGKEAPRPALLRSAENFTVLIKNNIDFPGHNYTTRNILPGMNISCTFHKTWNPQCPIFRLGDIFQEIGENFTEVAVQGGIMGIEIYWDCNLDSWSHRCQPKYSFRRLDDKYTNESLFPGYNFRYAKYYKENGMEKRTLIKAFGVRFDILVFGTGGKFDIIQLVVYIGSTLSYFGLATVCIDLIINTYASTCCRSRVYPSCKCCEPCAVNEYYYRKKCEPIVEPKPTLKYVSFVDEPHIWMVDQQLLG
Description: A 440-base pair (bp) fragment of P2X7 was amplified with inosine-containing degenerate oligonucleotides from several peripheral autonomic ganglia (Buell et al, EMBO J. 15:55 (1996)). […] An additional 468 bp of 5′ cDNA was cloned by rapid amplification of cDNA ends-polymerase chain reaction (RACE-PCR; Life Technologies, Bethesda, MD) using poly(A)^+ RNA from the medial habenula. P2X7 receptor-specific sequences were amplified with two rounds of nested PCR, for which sense primers were […] and […] and antisense primers were […] and […]. A shared restriction site (Bgl II) permitted ligation of the RACE-PCR product and of the partial cDNA, yielding a construct that encoded the entire P2X7 protein. This chimera (GenBank accession number X95882) was expressed in pcDNA3 (Invitrogen, San Diego, Calif.), sequenced by fluorescent DNA sequencing (Perkin Elmer, Foster City, Calif.), and confirmed by isolation of other full-length P2X7 cDNAs from a rat brain cDNA library (Clontech, Palo Alto, Calif.). One of these included a stop codon 130 bp upstream from the ATG. The COOH-terminus was removed by excision of a Xcm I-Not I fragment, and the resulting protein (P2X7ΔC) was P2X7 (1-418). […]

[2] = target: T2, P2X7 receptor (Rattus norvegicus, UniProt Q64663); experiment: YO-PRO-1 uptake, cell counts, in HEK cells stably expressing P2X7 receptor; conditions: incubation with BzATP for 3 to 5 min, low concentration of divalent cations
T2 construct: yielding a construct that encoded the entire P2X7 protein; expressed in transfected cells
T2 sequence (Q64663 1-595): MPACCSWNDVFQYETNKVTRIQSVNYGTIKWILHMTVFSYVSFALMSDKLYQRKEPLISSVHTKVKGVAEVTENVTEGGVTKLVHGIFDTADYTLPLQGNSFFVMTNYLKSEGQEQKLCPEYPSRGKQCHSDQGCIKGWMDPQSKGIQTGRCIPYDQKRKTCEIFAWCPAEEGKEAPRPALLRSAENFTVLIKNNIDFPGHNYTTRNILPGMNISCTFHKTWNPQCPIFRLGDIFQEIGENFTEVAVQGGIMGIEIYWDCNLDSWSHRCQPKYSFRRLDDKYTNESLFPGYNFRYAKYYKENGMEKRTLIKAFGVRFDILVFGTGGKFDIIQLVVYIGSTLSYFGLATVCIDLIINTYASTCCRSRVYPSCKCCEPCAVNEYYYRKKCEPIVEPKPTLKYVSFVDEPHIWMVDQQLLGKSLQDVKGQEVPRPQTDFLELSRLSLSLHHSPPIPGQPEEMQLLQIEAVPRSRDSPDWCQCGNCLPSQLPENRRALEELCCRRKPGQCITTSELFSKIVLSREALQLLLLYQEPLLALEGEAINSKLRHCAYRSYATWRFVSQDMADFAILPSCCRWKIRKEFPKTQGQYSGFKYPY
Protocol: (§1) YO-PRO-1 (10 μM; Molecular Probes, Eugene, Oreg.) was added to the superfusion fluid during electrophysiological recordings 3 to 6 min before switching to low divalent solution and washed out upon switching back to normal divalent solution, after which the fluorescent lamp was turned on and cells were examined with a fluorescein isothiocyanate filter. For cell counts, 500 cells per cover slip were counted in each case.

[3] = target: T1, P2X7ΔC receptor; experiment: YO-PRO-1 uptake in HEK cells expressing P2X7ΔC receptor; conditions: low divalent solution, BzATP 300 μM
Protocol: as §1

Nc1ncnc2c1ncn2[C@@H]1O[C@H](COP(=O)(O)OP(=O)(O)OP(=O)(O)O)[C@@H](OC(=O)c2ccc(C(=O)c3ccccc3)cc2)[C@H]1O [BzATP, 3′-O-(4-benzoyl)benzoyl ATP]
Current amplitude (mean±SEM) to BzATP [1]: 590±95 pA
stably transfected cells that took up YO-PRO-1 [2]: > 85%
uptake of YO-PRO-1 induced by BzATP [3]: no uptake of YO-PRO-1 was induced

Reference: patent publication US6509163B1, “Methods of screening modulators of mammalian P2X7 purinergic receptors” (Glaxo Group Limited, priority 1997, dated 2003)
